# In ChEMBL document CHEMBL3352475, “Novel dammarane saponins from Gynostemma pentaphyllum and their cytotoxic activities against HepG2 cells” (Bioorg Med Chem Lett, 2014):
# Test system: HepG2
# Assay: Cytotoxicity against human HepG2 cells after 24 hrs by CCK-8 assay
# Format: functional, cell-based
# Settings: HepG2, 24 h
row,Structure (SMILES),IC50 [µg/mL]
1,CC(=O)OC[C@H]1O[C@@H](O[C@H]2[C@H](O[C@H]3[C@H](O)C[C@]4(C)[C@H]5C[C@@H](O)[C@@H]6[C@@H](/C(C)=C\CC=C(C)C)CC[C@@]6(C)[C@]5(C)CC[C@H]4C3(C)C)O[C@H](CO)[C@@H](O)[C@@H]2O)[C@H](O)[C@@H](O)[C@@H]1O,40
2,C=C(CCC=C(C)C)[C@H]1CC[C@]2(C)[C@@H]1[C@H](O)C[C@@H]1[C@@]3(C)C[C@@H](O)[C@H](O[C@@H]4O[C@H](CO)[C@@H](O)[C@H](O)[C@H]4O[C@@H]4O[C@H](COC(C)=O)[C@@H](O)[C@H](O)[C@H]4O)C(C)(C)[C@@H]3CC[C@]12C,38
3,CC(C)=CCC[C@](C)(O)[C@H]1CC[C@]2(C)[C@@H]1[C@H](O)C[C@@H]1[C@@]3(C)CC[C@H](O[C@@H]4O[C@H](CO)[C@@H](O)[C@H](O)[C@H]4O[C@@H]4O[C@H](CO)[C@@H](O)[C@H](O)[C@H]4O)C(C)(C)[C@@H]3CC[C@]12C,54
